Biological target: T1, thrombin (Bos taurus, UniProt P00735)
T1 construct: purchased Sigma T-3399
Experiment: biological assay for thrombin inhibitory activity (fluorogenic substrate)
Format: biochemical
Conditions: for inhibition at 50 µM: test probe concentration 50 μM; for inhibition at 100 µM: test probe concentration 100 μM
Experimental: The biological assay for thrombin inhibitory activity is detailed below. To Costar® 96-well black fluorescence plate wells is added 70 microliters of assay buffer, followed by 10 microliters of 1 millimolar substrate solution. Test probe (10 microliters in 30% DMSO) is then added to wells according to the desired concentrations for the assay. The mixture is incubated at 37° C. for 5 minutes, followed by addition of 10 microliters of thrombin (100 micrograms/mL in assay buffer), to make a final assay volume of 100 microliters. The plate is mixed gently and incubated 15 minutes at 37° C. Stop buffer (100 microliters) is added, and the plate is read by detecting fluorescence intensity (Excitation at 360 nm, Emission at 460 nm). Percent inhibition of test compound is calculated by comparison with control wells. “Assay buffer” is composed of 100 mM KH2PO4, 100 mM Na2HPO4, 1 mM EDTA, 0.01% BRIJ-35, and 1 mM dithiothreitol (added fresh on the day assay is preformed). “Stop buffer” is composed of 100 mM Na—O(O)CCH2Cl and 30 mM sodium acetate which is brought to pH 2.5 with glacial acetic acid. Thrombin was purchased from Sigma (cat #T-3399). Thrombin substrate III fluorogenic was purchased from ICN (cat #195915). Sodium acetate, dithiothreitol, and Brij-35 were purchased from Sigma. Sodium monochloroacetate was purchased from Lancaster 223-498-3. Glacial acetic acid was purchased from Alfa Aesar (cat # 33252). Thrombin was stored at −20° C. Thrombin substrate fluorogenic was stored at −20° C. (5 mM in DMSO).

inhibition at 50 µM | inhibition at 100 µM | SMILES
10 to 39% | 40 to 74% | COc1ccc(CNC(=O)c2cc(Cl)ccc2NC(=O)c2n[nH]c3ccccc23)cc1OC [Example B1]
10 to 39% | 40 to 74% | CCCCN(CCCC)CCCNC(=O)c1cc(Cl)ccc1NC(=O)c1n[nH]c2ccccc12 [Example B2]
10 to 39% | 40 to 74% | CC(NC(=O)C(NC(=O)c1n[nH]c2ccccc12)C1CCNCC1)c1ccccc1 (stereo not drawn) [Example B3]
